# Assay results taken from PubChem BioAssay AID256 (DTP/NCI, 2004).
# “And” between values parts separate entries of the source, which are not always exact repeats. Equal values may be shown once. Toxic doses and inconclusive results are not listed.
# Tested on: CD2F1 mice, L1210 leukemia ip, survival T/C
# Test: NCI In Vivo Anticancer Drug Screen. Data for tumor model L1210 Leukemia (intraperitoneal) in CD2F1 (CDF1) mice
# Conditions: higher = longer survival
# Procedure, shortened: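 Ratio T/C, where T is the treated-group value and C the vehicle-dosed control value, from mice implanted with a transplantable tumor.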
# [1] = endpoint: mean survival time, dose: 100.0 mg/kg/injection, schedule: Q01DX009 (ip), vehicle: saline with Tween-80
# [2] = endpoint: mean survival time, dose: 200.0 mg/kg/injection, schedule: Q01DX009 (ip), vehicle: saline with Tween-80
# [3] = endpoint: mean survival time, dose: 400.0 mg/kg/injection, schedule: Q01DX009 (ip), vehicle: saline with Tween-80
compound,measurement,setting,value
COc1cccc2c1C(=O)c1c(O)c3c(c(O)c1C2=O)C[C@@](O)(C(=O)CO)C[C@@H]3OC1CC(N)C(O)C(C)O1 (stereo partly specified),T/C,"endpoint: mean survival time, dose: 0.06 mg/kg/injection, schedule: Q01DX009 (ip), vehicle: saline",105 % of control
same,T/C,"endpoint: mean survival time, dose: 0.12 mg/kg/injection, schedule: Q01DX009 (ip), vehicle: saline",114 % of control
same,T/C,"endpoint: mean survival time, dose: 0.2 mg/kg/injection, schedule: Q01DX009 (ip), vehicle: water",113 % of control and 114 % of control
same,T/C,"endpoint: mean survival time, dose: 0.25 mg/kg/injection, schedule: Q01DX005 (ip), vehicle: water",121 % of control
same,T/C,"endpoint: mean survival time, dose: 0.38 mg/kg/injection, schedule: Q01DX009 (ip), vehicle: saline",121 % of control
same,T/C,"endpoint: mean survival time, dose: 0.39 mg/kg/injection, schedule: Q01DX009 (ip), vehicle: water",117 % of control
same,T/C,"endpoint: mean survival time, dose: 0.43 mg/kg/injection, schedule: Q01DX009 (ip), vehicle: saline",120 % of control
same,T/C,"endpoint: mean survival time, dose: 0.62 mg/kg/injection, schedule: Q04DX003 (ip), vehicle: water",120 % of control
same,T/C,"endpoint: mean survival time, dose: 0.63 mg/kg/injection, schedule: Q04DX003 (ip), vehicle: water",123 % of control
same,T/C,"endpoint: mean survival time, dose: 0.72 mg/kg/injection, schedule: Q01DX009 (ip), vehicle: saline",173 % of control
same,T/C,"endpoint: mean survival time, dose: 1.0 mg/kg/injection, schedule: Q01DX001 (ip), vehicle: water",101 % of control
same,T/C,"endpoint: mean survival time, dose: 1.0 mg/kg/injection, schedule: Q01DX005 (ip), vehicle: water",174 % of control
same,T/C,"endpoint: mean survival time, dose: 1.08 mg/kg/injection, schedule: Q04DX003 (ip), vehicle: saline",124 % of control
same,T/C,"endpoint: mean survival time, dose: 1.2 mg/kg/injection, schedule: Q01DX009 (ip), vehicle: saline",204 % of control
same,T/C,"endpoint: mean survival time, dose: 1.68 mg/kg/injection, schedule: Q01DX001 (ip), vehicle: water",159 % of control
same,T/C,"endpoint: mean survival time, dose: 1.68 mg/kg/injection, schedule: Q01DX009 (ip), vehicle: water",160 % of control
same,T/C,"endpoint: mean survival time, dose: 1.7 mg/kg/injection, schedule: Q01DX001 (ip), vehicle: water",99 % of control
same,T/C,"endpoint: mean survival time, dose: 1.8 mg/kg/injection, schedule: Q04DX003 (ip), vehicle: saline",121 % of control
same,T/C,"endpoint: mean survival time, dose: 2.0 mg/kg/injection, schedule: Q01DX001 (ip), vehicle: saline",102 % of control
same,T/C,"endpoint: mean survival time, dose: 2.5 mg/kg/injection, schedule: Q04DX003 (ip), vehicle: water",187 % of control
same,T/C,"endpoint: mean survival time, dose: 2.8 mg/kg/injection, schedule: Q01DX001 (ip), vehicle: water",155 % of control
same,T/C,"endpoint: mean survival time, dose: 2.8 mg/kg/injection, schedule: Q01DX009 (ip), vehicle: water",153 % of control
same,T/C,"endpoint: mean survival time, dose: 2.9 mg/kg/injection, schedule: Q01DX001 (ip), vehicle: water",98 % of control
same,T/C,"endpoint: mean survival time, dose: 3.0 mg/kg/injection, schedule: Q01DX009 (ip), vehicle: saline",114 % of control and 101 % of control
same,T/C,"endpoint: mean survival time, dose: 3.13 mg/kg/injection, schedule: Q01DX009 (ip), vehicle: water",101 % of control
same,T/C,"endpoint: mean survival time, dose: 4.0 mg/kg/injection, schedule: Q01DX001 (ip), vehicle: saline",193 % of control
same,T/C,"endpoint: mean survival time, dose: 4.67 mg/kg/injection, schedule: Q01DX001 (ip), vehicle: water",166 % of control
same,T/C,"endpoint: mean survival time, dose: 4.67 mg/kg/injection, schedule: Q01DX009 (ip), vehicle: water",100 % of control
same,T/C,"endpoint: mean survival time, dose: 4.8 mg/kg/injection, schedule: Q01DX001 (ip), vehicle: water",102 % of control
same,T/C,"endpoint: mean survival time, dose: 5.0 mg/kg/injection, schedule: Q01DX001 (ip), vehicle: saline",150 % of control and 171 % of control
same,T/C,"endpoint: mean survival time, dose: 5.0 mg/kg/injection, schedule: Q01DX001 (ip), vehicle: water",151 % of control and 178 % of control
same,T/C,"endpoint: mean survival time, dose: 5.0 mg/kg/injection, schedule: Q04DX003 (ip), vehicle: water",166 % of control
same,T/C,"endpoint: mean survival time, dose: 5.4 mg/kg/injection, schedule: Q01DX001 (ip), vehicle: saline",151 % of control and 260 % of control
same,T/C,"endpoint: mean survival time, dose: 6.6 mg/kg/injection, schedule: Q01DX001 (ip), vehicle: saline",193 % of control
same,T/C,"endpoint: mean survival time, dose: 7.78 mg/kg/injection, schedule: Q01DX001 (ip), vehicle: water",153 % of control
same,T/C,"endpoint: mean survival time, dose: 8.0 mg/kg/injection, schedule: Q01DX001 (ip), vehicle: saline",208 % of control
same,T/C,"endpoint: mean survival time, dose: 8.0 mg/kg/injection, schedule: Q01DX001 (ip), vehicle: water",98 % of control
same,T/C,"endpoint: mean survival time, dose: 8.0 mg/kg/injection, schedule: Q04DX003 (ip), vehicle: saline",163 % of control
same,T/C,"endpoint: mean survival time, dose: 8.0 mg/kg/injection, schedule: Q04DX003 (ip), vehicle: water",116 % of control
same,T/C,"endpoint: mean survival time, dose: 10.0 mg/kg/injection, schedule: Q01DX001 (ip), vehicle: water",169 % of control and 176 % of control
same,T/C,"endpoint: mean survival time, dose: 10.0 mg/kg/injection, schedule: Q04DX003 (ip), vehicle: water",89 % of control
same,T/C,"endpoint: mean survival time, dose: 12.96 mg/kg/injection, schedule: Q01DX001 (ip), vehicle: water",161 % of control
same,T/C,"endpoint: mean survival time, dose: 13.33 mg/kg/injection, schedule: Q01DX001 (ip), vehicle: water",104 % of control
same,T/C,"endpoint: mean survival time, dose: 15.0 mg/kg/injection, schedule: Q01DX001 (ip), vehicle: saline",196 % of control and 201 % of control
same,T/C,"endpoint: mean survival time, dose: 18.0 mg/kg/injection, schedule: Q01DX001 (ip), vehicle: saline",121 % of control
same,T/C,"endpoint: mean survival time, dose: 20.0 mg/kg/injection, schedule: Q01DX001 (ip), vehicle: saline",225 % of control
same,T/C,"endpoint: mean survival time, dose: 20.0 mg/kg/injection, schedule: Q01DX001 (ip), vehicle: water",121 % of control and 263 % of control
same,T/C,"endpoint: mean survival time, dose: 22.23 mg/kg/injection, schedule: Q01DX001 (ip), vehicle: water",119 % of control
same,T/C,"endpoint: mean survival time, dose: 40.0 mg/kg/injection, schedule: Q01DX001 (ip), vehicle: water",100 % of control
same,T/C,"endpoint: mean survival time, dose: 20.0 micrograms/kg/injection, schedule: Q01DX005 (ip), vehicle: saline",100 % of control
same,T/C,"endpoint: mean survival time, dose: 40.0 micrograms/kg/injection, schedule: Q01DX005 (ip), vehicle: saline",117 % of control
same,T/C,"endpoint: median survival time, dose: 0.5 mg/kg/injection, schedule: Q01DX009 (ip), vehicle: saline",170 % of control
same,T/C,"endpoint: median survival time, dose: 1.0 mg/kg/injection, schedule: Q01DX005 (ip), vehicle: water",150 % of control
same,T/C,"endpoint: median survival time, dose: 2.0 mg/kg/injection, schedule: Q01DX005 (ip), vehicle: water",162 % of control
same,T/C,"endpoint: median survival time, dose: 2.0 mg/kg/injection, schedule: Q04DX003 (ip), vehicle: water",163 % of control
same,T/C,"endpoint: median survival time, dose: 2.16 mg/kg/injection, schedule: Q04DX003 (ip), vehicle: saline",115 % of control
same,T/C,"endpoint: median survival time, dose: 3.6 mg/kg/injection, schedule: Q01DX001 (ip), vehicle: saline",151 % of control
same,T/C,"endpoint: median survival time, dose: 3.6 mg/kg/injection, schedule: Q04DX003 (ip), vehicle: saline",113 % of control
same,T/C,"endpoint: median survival time, dose: 4.0 mg/kg/injection, schedule: Q04DX003 (ip), vehicle: saline",157 % of control
same,T/C,"endpoint: median survival time, dose: 4.0 mg/kg/injection, schedule: Q04DX003 (ip), vehicle: water",339 % of control
same,T/C,"endpoint: median survival time, dose: 4.8 mg/kg/injection, schedule: Q01DX001 (ip), vehicle: saline",103 % of control
same,T/C,"endpoint: median survival time, dose: 5.0 mg/kg/injection, schedule: Q01DX001 (ip), vehicle: saline",150 % of control and 155 % of control
same,T/C,"endpoint: median survival time, dose: 6.0 mg/kg/injection, schedule: Q01DX001 (ip), vehicle: saline",152 % of control
same,T/C,"endpoint: median survival time, dose: 6.0 mg/kg/injection, schedule: Q04DX003 (ip), vehicle: saline",115 % of control
same,T/C,"endpoint: median survival time, dose: 8.0 mg/kg/injection, schedule: Q01DX009 (ip), vehicle: saline",104 % of control
same,T/C,"endpoint: median survival time, dose: 8.0 mg/kg/injection, schedule: Q04DX003 (ip), vehicle: saline",154 % of control
same,T/C,"endpoint: median survival time, dose: 8.0 mg/kg/injection, schedule: Q04DX003 (ip), vehicle: water",182 % of control and 339 % of control
same,T/C,"endpoint: median survival time, dose: 8.4 mg/kg/injection, schedule: Q04DX003 (ip), vehicle: water",103 % of control
same,T/C,"endpoint: median survival time, dose: 9.6 mg/kg/injection, schedule: Q01DX001 (ip), vehicle: saline",113 % of control and 216 % of control
same,T/C,"endpoint: median survival time, dose: 14.0 mg/kg/injection, schedule: Q04DX003 (ip), vehicle: water",78 % of control
same,T/C,"endpoint: median survival time, dose: 16.0 mg/kg/injection, schedule: Q01DX001 (ip), vehicle: water",76 % of control
same,T/C,"endpoint: median survival time, dose: 16.0 mg/kg/injection, schedule: Q01DX001 (iv), vehicle: water",193 % of control
same,T/C,"endpoint: median survival time, dose: 20.0 mg/kg/injection, schedule: Q01DX001 (ip), vehicle: saline",71 % of control
same,T/C,"endpoint: median survival time, dose: 26.7 mg/kg/injection, schedule: Q01DX001 (ip), vehicle: saline",99 % of control
same,T/C,"endpoint: median survival time, dose: 32.0 mg/kg/injection, schedule: Q01DX001 (iv), vehicle: water",65 % of control
same,T/C,"endpoint: median survival time, dose: 40.0 mg/kg/injection, schedule: Q01DX001 (ip), vehicle: saline",53 % of control
CC(=O)/C(=C\c1ccccc1)CNC1CCCCC1,T/C,"endpoint: mean survival time, dose: 6.25 mg/kg/injection, schedule: Q01DX001 (ip), vehicle: saline with Tween-80",96 % of control
same,T/C,"endpoint: mean survival time, dose: 12.5 mg/kg/injection, schedule: Q01DX001 (ip), vehicle: saline with Tween-80",104 % of control
N#Cc1cccc(N)c1,T/C,[1],106 % of control
same,T/C,[2],94 % of control
same,T/C,[3],98 % of control
CC(C)(SC(c1ccccc1)(c1ccccc1)c1ccccc1)C(N)C(=O)O (stereo unspecified),T/C,"endpoint: mean survival time, dose: 25.0 mg/kg/injection, schedule: Q01DX009 (ip), vehicle: saline",106 % of control
same,T/C,"endpoint: mean survival time, dose: 50.0 mg/kg/injection, schedule: Q01DX009 (ip), vehicle: saline",103 % of control
O=[N+]([O-])c1ccc(N=C(Cl)c2ccccc2)cc1,T/C,[1],101 % of control
same,T/C,[2],104 % of control
same,T/C,[3],104 % of control
